Common to all, as to type: cell-based
One test has as its system SARS coronavirus. As to the kind of experiment: microbe, parasite or virus in culture. Particulars: Severe acute respiratory syndrome coronavirus.
For test [1], the system named is Japanese encepahalitis virus. The settings on record: read-out: In-Vitro Antiviral Screening Result (EC50) C.
Another test has as its system Influenza A virus H1N1. The experiment in a line: microbe, parasite or virus in culture. Particulars: H1N1, read-out: In-Vitro Antiviral Screening Result (EC50) H.
Test [2] concerns Venezuelan equine encephalitis virus. As to the kind of experiment: microbe, parasite or virus in culture. Particulars: read-out: In-Vitro Antiviral Screening Result (EC50) G.
The next test relates to Rift Valley fever virus. As to the kind of experiment: microbe, parasite or virus in culture.
For another test, the system named is many virus. The experiment in a line: Antivirus studies in vitro, summary over the virus panel. Particulars: read-out: EC50 against many virus. On the procedure: compounds were diluted to 20 mg/mL in DMSO then prepared in for log 10 dilutions of 100 μg/mL down to 0.1 μg/mL) in MEM solution with 50 μg/mL gentamicin and 2% FBS. Each dilution was added to 5 wells of a 96-well plate with 80-100% confluent cells. Three wells of each dilution were infected with virus, and two wells remained uninfected as toxicity controls. The multiplicity of infection (MOI) was as low as possible to achieve CPE within 3-5 days of incubation. A known active compound was tested in parallel as a control. After untreated virus control wells reached maximum cytopathic effect (CPE), each well was scored microscopically. Plates were then stained with neutral red dye for approximately 2 hours, then supernatant dye was removed from the wells and the incorporated dye was extracted in 50:50 Sorensen citrate buffer/ethanol, then the optical density was read on a spectrophotometer.

The mark [3] stands for this setting: read-out: In-Vitro Antiviral Screening Result (EC50) F.
[4] abbreviates: read-out: In-Vitro Antiviral Screening Result (EC50) E.

Where two headings read alike, the source gives them in different places.

By EC50 is commonly meant the midpoint of the concentration-response curve. With `C=C1CCC2[C@](C)(CC[C@@H](O)[C@@]2(C)CO)C1/C=C/C1=CC(=C\c2cnc(N3CCCC3CO)nc2)/OC1=O` (stereo partly shown) [Example 65, 11,12-dedihydro-14-deoxy-(E)-15-((2-(2-(hydroxymethyl)pyrrolidin-1-yl)pyrimidin-5-yl)methylene)andrographolide], the EC50 was under 50 µg/mL in the test with SARS coronavirus (setting [3]); over 100 µg/mL in test [1]; over 100 µg/mL with Influenza A virus H1N1; under 100 µg/mL in test [2]; under 50 µg/mL in the test with Rift Valley fever virus (setting [4]); under 50 µg/mL in the test on many virus.

Regarding `C=C1CCC2C(C)(CO)C(O)CCC2(C)C1/C=C/C1=CC(=C\c2ccc(Cl)cc2Cl)/OC1=O` (stereo not shown) [Example 35, 11,12-dedihydro-14-deoxy-(E)-15-(2,4-dichlorobenzylidene)andrographolide], the EC50 with SARS coronavirus (setting [3]) was under 50 µg/mL; in test [1] it was under 50 µg/mL; in the test on Influenza A virus H1N1, under 50 µg/mL; in test [2], under 50 µg/mL; in the test with Rift Valley fever virus (setting [4]), over 100 µg/mL; in the test on many virus it was under 50 µg/mL.

As to `C=C1CCC2[C@](C)(CC[C@@H](O)[C@@]2(C)CO)C1/C=C/C1=CC(=C\c2ccc(-n3ccnc3)cc2)/OC1=O` (stereo partly shown) [Example 79, 11,12-dedihydro-14-deoxy-(E)-15-(4-(1H-imidazol-1-yl)benzylidene)andrographolide], the EC50 (with SARS coronavirus (setting [3]); in test [1]; with Influenza A virus H1N1; in test [2]; in the test on Rift Valley fever virus (setting [4]); with many virus) was under 50 µg/mL each time.

On to `C=C1CCC2[C@](C)(CC[C@@H](O)[C@@]2(C)CO)C1/C=C/C1=CC(=C\c2cn(C)c3nc(N)ncc23)/OC1=O` (stereo partly shown) [Example 46, 11,12-dedihydro-14-deoxy-(E)-15-((2-amino-7-methyl-7H-pyrrolo[2,3-d]pyrimidin-5-yl)methylene)andrographolide], for which the EC50 was under 50 µg/mL in the test with SARS coronavirus (setting [3]); under 100 µg/mL in test [1]; under 100 µg/mL in the test with Influenza A virus H1N1; under 100 µg/mL in test [2]; under 50 µg/mL in the test on Rift Valley fever virus (setting [4]); under 50 µg/mL in the test on many virus.

On to `C=C1CCC2[C@](C)(CC[C@@H](O)[C@@]2(C)CO)C1/C=C/C1=CC(=C\c2cnc(N)[nH]c2=O)/OC1=O` (stereo partly shown) [Example 50, 11,12-dedihydro-14-deoxy-15-(2-amino-4-oxo-3H-pyrimidine-5-ylmethylene)andrographolide], for which the EC50 is under 100 µg/mL with SARS coronavirus (setting [3]); under 50 µg/mL in test [1]; under 50 µg/mL with Influenza A virus H1N1; under 50 µg/mL in test [2]; under 100 µg/mL in the test on Rift Valley fever virus (setting [4]); under 50 µg/mL in the test on many virus.

In the case of `CC(=O)OCC1(C)C(OC(C)=O)CCC2(C)C(/C=C/C3=CCOC3=O)C3C(=Nc4cncn43)CC12` (stereo not shown) [Example 95], the EC50 with SARS coronavirus (setting [3]) was under 50 µg/mL; in test [1], over 100 µg/mL; in the test with Influenza A virus H1N1, under 50 µg/mL; in test [2] it was under 100 µg/mL; in the test with Rift Valley fever virus (setting [4]) it was over 100 µg/mL; in the test on many virus, under 50 µg/mL.

Regarding `C=C1CCC2C(C)(CO)C(O)CCC2(C)C1CC(Nc1cccc(Cl)c1)C1=CCOC1=O` (stereo not shown) [Example 53, 12-((3-chlorophenyl)amino)-14-deoxyandrographolide], the EC50 in the test on SARS coronavirus (read-out: EC50 against virus F) is under 1 µg/mL; with SARS coronavirus (setting [3]) it was under 50 µg/mL; in test [1], under 50 µg/mL; with Influenza A virus H1N1 it was under 50 µg/mL; in test [2], under 50 µg/mL; in the test with Rift Valley fever virus (read-out: EC50 against virus E), under 1 µg/mL. Further, in the test with Rift Valley fever virus (setting [4]), the EC50 is under 10 µg/mL.

Consider `C=C1C(N2CCOCC2)CC2[C@](C)(CC[C@@H](O)[C@@]2(C)CO)C1/C=C/C1=CCOC1=O` (stereo partly shown) [Example 83], for which the EC50 in the test with SARS coronavirus (read-out: EC50 against virus F) is under 1 µg/mL; in the test with SARS coronavirus (setting [3]), under 50 µg/mL; in test [1], under 50 µg/mL; in the test with Influenza A virus H1N1 it was under 50 µg/mL; in test [2], under 50 µg/mL; in the test with Rift Valley fever virus (read-out: EC50 against virus E), under 1 µg/mL. For the same compound, the EC50 in the test with Rift Valley fever virus (setting [4]) is under 50 µg/mL.

Regarding `COc1cc(/C=C2C=C(/C=C/C3C4(CCC5[C@]3(C)CC[C@@H](O)[C@@]5(C)CO)CO4)C(=O)O\2)cc([N+](=O)[O-])c1O` (stereo partly shown) [Example 41, 11,12-dedihydro-14-deoxy-(E)-15-(4-hydroxy-3-methoxy-5-nitrobenzylidene)-8,17-epoxyandrographolide], the EC50 with SARS coronavirus (setting [3]) was under 100 µg/mL; in test [1], over 100 µg/mL; in the test on Influenza A virus H1N1, under 100 µg/mL; in test [2] it was over 100 µg/mL; in the test with Rift Valley fever virus (setting [4]), under 50 µg/mL; in the test on many virus, under 50 µg/mL.

Turning to `C=C1C(NC(C)C(=O)NC2=NCC=N2)CC2[C@](C)(CC[C@@H](O)[C@@]2(C)CO)C1/C=C/C1=CC(=C\c2ccc(N(C)C)cc2)/OC1=O` (stereo partly shown) [Example 188], the EC50 in the test with SARS coronavirus (setting [3]) was under 50 µg/mL; in test [1], under 100 µg/mL; in the test with Influenza A virus H1N1, over 100 µg/mL; in test [2], under 100 µg/mL; in the test with Rift Valley fever virus (setting [4]), under 100 µg/mL; in the test with many virus it was under 50 µg/mL.

On to `C=C1CCC2[C@](C)(CC[C@@H](O)[C@@]2(C)CO)C1/C=C/C1=CC(=C\C2=CN3CC(=O)N(C)C3C=C2)/OC1=O` (stereo partly shown) [Example 63, 11,12-dedihydro-14-deoxy-(E)-15-((1-methyl-2-oxo-1,2,3,8a-tetrahydroimidazo[1,2-a]pyridin-6-yl)methylene)andrographolide], for which the EC50 in the test with SARS coronavirus (setting [3]) is under 50 µg/mL; in test [1], under 100 µg/mL; with Influenza A virus H1N1 it was under 50 µg/mL; in test [2] it was under 100 µg/mL; with Rift Valley fever virus (setting [4]), under 50 µg/mL; in the test on many virus, under 50 µg/mL.

For the compound `C[C@]12CC[C@@H](O)[C@@](C)(CO)C1CCC1(CO1)C2/C=C/C1=CC(=C\c2cnc(N)[nH]c2=O)/OC1=O` (stereo partly shown) [Example 38, 11,12-dedihydro-14-deoxy-15-(2-amino-5-oxygen-3H-pyrimidine-5-ylmethylene)-8,17-epoxyandrographolide], the concentration giving a half-maximal response (EC50) is under 50 µg/mL in the test with SARS coronavirus (setting [3]); under 100 µg/mL in test [1]; under 100 µg/mL in the test on Influenza A virus H1N1; under 100 µg/mL in test [2]; over 100 µg/mL with Rift Valley fever virus (setting [4]); under 50 µg/mL in the test on many virus.

For `Cn1cc(/C=C2C=C(/C=C/C3C4(CCC5[C@]3(C)CC[C@@H](O)[C@@]5(C)CO)CO4)C(=O)O\2)c2cnc(N)nc21` (stereo partly shown) [Example 59, 11,12-dedihydro-14-deoxy-(E)-15-((2-amino-7-methyl-7H-pyrrolo[2,3-d]pyrimidin-5-yl)methylene)-8,17-epoxyandrographolide], the EC50 with SARS coronavirus (setting [3]) is under 50 µg/mL; in test [1], over 100 µg/mL; with Influenza A virus H1N1 it was under 100 µg/mL; in test [2], over 100 µg/mL; in the test with Rift Valley fever virus (setting [4]) it was under 50 µg/mL; in the test on many virus, under 50 µg/mL.

Regarding `C=C1CCC2[C@](C)(CC[C@@H](O)[C@@]2(C)CO)C1/C=C/C1=CC(=C\c2ccc(N(C)C)cc2)/OC1=O` (stereo partly shown) [Example 37, 11,12-dedihydro-14-deoxy-15-(4-(dimethylamino)benzylidene)andrographolide], the EC50 with SARS coronavirus (read-out: EC50 against virus F) was under 1 µg/mL; in the test with SARS coronavirus (setting [3]), under 50 µg/mL; in test [1] it was under 50 µg/mL; in the test on Influenza A virus H1N1, under 50 µg/mL; in test [2], under 50 µg/mL; with Rift Valley fever virus (read-out: EC50 against virus E), under 1 µg/mL. Also, in the test on Rift Valley fever virus (setting [4]), the EC50 was under 50 µg/mL.

Take `C=C1C(N2CCOCC2)CC2[C@](C)(CC[C@@H](O)[C@@]2(C)CO)C1/C=C/C1=CC(=C\c2ccc(N(C)C)cc2)/OC1=O` (stereo partly shown) [Example 124]: the EC50 was under 50 µg/mL in the test with SARS coronavirus (setting [3]); under 50 µg/mL in test [1]; under 100 µg/mL with Influenza A virus H1N1; under 50 µg/mL in test [2]; under 50 µg/mL in the test on Rift Valley fever virus (setting [4]); under 50 µg/mL with many virus.

In the case of `CC(NC1CC2[C@](C)(CC[C@@H](O)[C@@]2(C)CO)C(/C=C/C2=CC(=C\c3cnc(N4CCN(C)CC4)nc3)/OC2=O)C12CO2)C(=O)NC1=NCC=N1` (stereo partly shown) [Example 23, 7-((2-((4H-imidazol-2-yl)amino)-1-oxopropan-2-yl)amino)-11,12-dedihydro-14-deoxy-(E)-15-((2-(4-methylpiperazin-1-yl)pyrimidin-5-yl)methylene)-8,17-epoxyandrographolide], the EC50 is under 50 µg/mL in the test on SARS coronavirus (setting [3]); under 50 µg/mL in test [1]; over 100 µg/mL in the test on Influenza A virus H1N1; under 50 µg/mL in test [2]; under 50 µg/mL with Rift Valley fever virus (setting [4]); under 50 µg/mL with many virus.

In the case of `CN(C)c1ccc(/C=C2C=C(/C=C/C3C4(CCC5[C@]3(C)CC[C@@H](O)[C@@]5(C)CO)CO4)C(=O)O\2)c(O)c1` (stereo partly shown) [Example 78], the EC50 in the test on SARS coronavirus (setting [3]) is under 50 µg/mL; in test [1], under 100 µg/mL; in the test on Influenza A virus H1N1, over 100 µg/mL; in test [2], under 100 µg/mL; with Rift Valley fever virus (setting [4]), under 100 µg/mL; in the test with many virus, under 50 µg/mL.

`C=C1CCC2C(C)(CO)C(O)CCC2(C)C1CC(NC12CN3CN(CN(C3)C1)C2)C1=CCOC1=O` (stereo not shown) [Example 57, 12-((1s,3s,5s)-1,3,5-triazaadamantan-7-ylamino)-14-deoxyandrographolide]: the EC50 is under 1 µg/mL in the test on SARS coronavirus (read-out: EC50 against virus F); under 50 µg/mL in the test with SARS coronavirus (setting [3]); under 50 µg/mL in test [1]; under 50 µg/mL with Influenza A virus H1N1; under 50 µg/mL in test [2]; under 1 µg/mL in the test with Rift Valley fever virus (read-out: EC50 against virus E). Moreover, in the test with Rift Valley fever virus (setting [4]), the EC50 is under 50 µg/mL.
